We go through five molecules from DBAASP.

Molecules are shown by their SMILES. In brackets after ≈: the same amount, converted by molar mass.

Among the test systems are Candida albicans; Aspergillus fumigatus; Cryptococcus neoformans; Sporothrix schenckii; Staphylococcus aureus MR; Escherichia coli HB101.
Holding throughout (experiment): ≥ marks a high value that may be exact or a test limit, other limits are often not marked, values filed in µg/mL are converted to µM
Assay [1] deals with Staphylococcus aureus ATCC 9144.
Assay [2] concerns Pseudomonas aeruginosa ATCC BAA-427.
The test system of assay [3] is Candida parapsilosis ATCC 22019.
Assay [4] concerns Trichophyton mentagrophytes.
Assay [5] has as its system Klebsiella pneumoniae ATCC 27736.
For assay [6], the system named is Staphylococcus epidermidis NRRL B-4268.
For assay [7], the system named is Escherichia coli ATCC 10536.
The test system of assay [8] is Bacillus subtilis ATCC 6633.
In assay [9] the test system is Streptococcus mutans UA159.
For assay [10], the system named is Streptococcus sobrinus ATCC 6715.
Assay [11] concerns Streptococcus sanguinis ATCC 10556.
The subject of assay [12] is Candida albicans NCTC 3179.
In assay [13] the test system is Staphylococcus aureus NCTC 6571.
Assay [14] relates to Escherichia coli ATCC 25922.
In assay [15] the test system is Staphylococcus epidermidis KCTC 1917.
The subject of assay [16] is Acinetobacter baumannii CCARM 12036.
For assay [17], the system named is Staphylococcus aureus CCARM 3108.
Assay [18] has as its system Escherichia coli CCARM 1229.
Assay [19] has as its system Staphylococcus aureus CCARM 3126.
The test system of assay [20] is Pseudomonas aeruginosa CCARM 2095.
The test system of assay [21] is Escherichia coli CCARM 1238.
Assay [22] relates to Bacillus subtilis KCTC 3028.
Assay [23] concerns Staphylococcus aureus KCTC 1621.
Assay [24] deals with Escherichia coli KCTC 1682.
The test system of assay [25] is Salmonella typhimurium CCARM 8007.
The test system of assay [26] is Salmonella typhimurium KCTC 1926.
Assay [27] relates to Staphylococcus aureus CCARM 3089.
Assay [28] has as its system Acinetobacter baumannii CCARM 12035.
Assay [29] has as its system Salmonella typhimurium CCARM 8003.
For assay [30], the system named is Pseudomonas aeruginosa CCARM 2002.
The test system of assay [31] is Acinetobacter baumannii KCTC 2508.
Assay [32] relates to Pseudomonas aeruginosa KCTC 1637.
Assay [33] relates to Leishmania major MHOM/IL/67/JERICHO-II.
Assay [34] has as its system Staphylococcus aureus Cowan 1.

On to `CC(C)C[C@H](NC(=O)[C@H](C)NC(=O)[C@H](CCCN=C(N)N)NC(=O)[C@H](CCCN=C(N)N)NC(=O)[C@H](C)NC(=O)[C@H](Cc1c[nH]c2ccccc12)NC(=O)[C@H](CCCCN)NC(=O)[C@H](CCCN=C(N)N)NC(=O)[C@H](C)NC(=O)[C@H](CCCN=C(N)N)NC(=O)[C@H](CCCN=C(N)N)NC(=O)[C@H](C)N)C(=O)N[C@@H](CCCCN)C(=O)N[C@@H](CC(C)C)C(=O)N[C@@H](C)C(N)=O` [ARRARKWARRALKLA], for which the MIC in [1] is 6.25 µM (≈ 11.4 µg/mL); against Candida albicans, greater than 25 µM; in assay [2], 6.25 µM (≈ 11.4 µg/mL); in the assay on Aspergillus fumigatus, 25 µM (≈ 45.6 µg/mL); in [3], 25 µM (≈ 45.6 µg/mL); in assay [4] it was 25 µM (≈ 45.6 µg/mL). The MIC against Cryptococcus neoformans is 25 µM (≈ 45.6 µg/mL); in assay [5], 25 µM (≈ 45.6 µg/mL); in the assay on Sporothrix schenckii it was 25 µM (≈ 45.6 µg/mL); in assay [6], 8 µM (≈ 14.6 µg/mL); in assay [7] it was 4.5 µM (≈ 8.2 µg/mL); in assay [8], 20 µM (≈ 36.4 µg/mL). The molecule further registered a minimum inhibitory concentration (MIC) in the assay with Staphylococcus aureus MR of 25 µM (≈ 45.6 µg/mL).

`CC(C)[C@H](NC(=O)[C@H](CCCCN)NC(=O)[C@H](Cc1ccccc1)NC(=O)[C@H](Cc1ccccc1)NC(=O)[C@H](CCCCN)NC(=O)[C@H](CCCCN)NC(=O)[C@H](Cc1ccccc1)NC(=O)[C@H](Cc1ccccc1)NC(=O)[C@H](CCCCN)NC(=O)CNC(=O)[C@H](Cc1c[nH]c2ccccc12)NC(=O)CN)C(=O)NCC(=O)N[C@@H](CCCCN)C(=O)O` [GWGKFFKKFFKVGK]: the MIC in assay [9], in assay [10] and in assay [11] was 18.8 µM (≈ 32 µg/mL) in each case.

On to `CC[C@H](C)[C@H](NC(=O)[C@H](CCCN=C(N)N)NC(=O)[C@H](CCC(N)=O)NC(=O)[C@@H](NC(=O)[C@@H](NC(=O)[C@H](CCCN=C(N)N)NC(=O)[C@H](CCCCN)NC(=O)[C@H](Cc1ccccc1)NC(=O)[C@H](CCC(=O)O)NC(=O)[C@@H](N)CCCCN)[C@@H](C)CC)C(C)C)C(=O)N[C@@H](CCCCN)C(=O)N[C@@H](CC(=O)O)C(=O)N[C@@H](Cc1ccccc1)C(=O)N[C@@H](CC(C)C)C(=O)N[C@@H](CCCN=C(N)N)C(=O)N[C@@H](CC(N)=O)C(=O)N[C@@H](CC(C)C)C(=O)N[C@H](C(=O)O)C(C)C` [KEFKRIVQRIKDFLRNLV], for which the MIC in [12] was no less than 36.5 µM; in assay [13], 3.13 µM (≈ 7.2 µg/mL); in assay [14], 0.912 µM (≈ 2.1 µg/mL).

As to `CC[C@H](C)[C@H](NC(=O)[C@H](C)NC(=O)[C@H](CCC(=O)O)NC(=O)[C@H](Cc1cnc[nH]1)NC(=O)[C@@H](NC(=O)[C@@H]1CCCN1C(=O)[C@H](CCC(N)=O)NC(=O)[C@H](Cc1ccccc1)NC(=O)[C@@H](NC(=O)[C@H](CCCCN)NC(=O)[C@H](CCCCN)NC(=O)[C@H](CC(C)C)NC(=O)[C@H](C)NC(=O)[C@H](CC(N)=O)NC(=O)[C@H](CC(C)C)NC(=O)CN)C(C)C)[C@@H](C)CC)C(=O)N[C@@H](CCCCN)C(=O)N[C@@H](CC(C)C)C(=O)N[C@H](C(=O)N[C@@H](CC(N)=O)C(=O)N[C@@H](CC(N)=O)C(=O)N[C@@H](Cc1cnc[nH]1)C(=O)N[C@H](C(=O)N[C@@H](CCC(N)=O)C(=O)O)C(C)C)[C@@H](C)CC` [GLNALKKVFQPIHEAIKLINNHVQ], the MIC is no less than 32 µM in assay [15]; 8 µM (≈ 21.8 µg/mL) in assay [16]; no less than 32 µM in assay [17]; 8 µM (≈ 21.8 µg/mL) in [18]; no less than 32 µM in [19]; 16 µM (≈ 43.6 µg/mL) in assay [20]. Besides, the MIC in assay [21] was 8 µM (≈ 21.8 µg/mL); in assay [22] it was no less than 32 µM; in assay [23], no less than 32 µM; in [24] it was 8 µM (≈ 21.8 µg/mL); in [25] it was 8 µM (≈ 21.8 µg/mL); in [26], 8 µM (≈ 21.8 µg/mL). The MIC in assay [27] was no less than 32 µM; in assay [28], 8 µM (≈ 21.8 µg/mL); in [29], 16 µM (≈ 43.6 µg/mL); in assay [30] it was 16 µM (≈ 43.6 µg/mL); in [31], 8 µM (≈ 21.8 µg/mL); in assay [32], 16 µM (≈ 43.6 µg/mL).

As for `CSCC[C@H](NC(=O)[C@@H](NC(=O)CNC(=O)[C@H](CC(C)C)NC(=O)[C@H](CCCCN)NC(=O)[C@H](CCCCN)NC(=O)[C@H](CC(C)C)NC(=O)[C@H](CCSC)NC(=O)[C@@H](NC(=O)[C@H](CCCCN)NC(=O)[C@H](Cc1c[nH]c2ccccc12)NC(=O)[C@H](CC(C)C)NC(=O)[C@H](C)N)[C@@H](C)O)[C@@H](C)O)C(=O)N[C@@H](C)C(N)=O` [ALWKTMLKKLGTMA], the MIC (against Escherichia coli HB101; in assay [33]; in assay [34]) was no less than 48.8 µM in each case.

Broadly, the MIC is the least concentration at which growth counts as inhibited. A higher MIC goes with weaker potency.
